Measurements taken from PubChem BioAssay AID1963966 (Molecular Pharmacology Branch, DTP, NCI, 2024).

System: 935938-334-R-J1-PDC spheroids with HUVEC/MSC, viability
Experiment: Anticancer human tumor 935938-334-R-J1-PDC patient-derived small intestine adenocarcinoma cell line growth inhibition [PI3K]
Conditions: for IC50: curve of first compound; for viability, T/C: stronger effect = lower value
Method in brief: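 Tumor cells grown as multi-cell spheroids with HUVEC endothelial cells and MSC fibroblast-like stroma were treated with targeted agents combined with inavolisib, alpelisib, duvelisib or copanlisib. Doses fell in half-log steps from near clinical Cmax, else from 10 microM. Viability was measured.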

[1] = second compound 0.0316 µM, first compound 0.000316 µM
[2] = second compound 0.0316 µM, first compound 0.001 µM
[3] = second compound 0.0316 µM, first compound 0.00316 µM
[4] = second compound 0.0316 µM, first compound 0.01 µM
[5] = second compound 0.0316 µM, first compound 0.0316 µM
[6] = second compound 0.0316 µM, first compound 0.1 µM
[7] = second compound 0.1 µM, first compound 0.000316 µM
[8] = second compound 0.1 µM, first compound 0.001 µM
[9] = second compound 0.1 µM, first compound 0.00316 µM
[10] = second compound 0.1 µM, first compound 0.01 µM
[11] = second compound 0.1 µM, first compound 0.0316 µM
[12] = second compound 0.1 µM, first compound 0.1 µM
[13] = second compound 0.316 µM, first compound 0.000316 µM
[14] = second compound 0.316 µM, first compound 0.001 µM
[15] = second compound 0.316 µM, first compound 0.00316 µM
[16] = second compound 0.316 µM, first compound 0.01 µM
[17] = second compound 0.316 µM, first compound 0.0316 µM
[18] = second compound 0.316 µM, first compound 0.1 µM
[19] = second compound 1 µM, first compound 0.000316 µM
[20] = second compound 1 µM, first compound 0.001 µM
[21] = second compound 1 µM, first compound 0.00316 µM
[22] = second compound 1 µM, first compound 0.01 µM
[23] = second compound 1 µM, first compound 0.0316 µM
[24] = second compound 1 µM, first compound 0.1 µM
[25] = second compound 0.00316 µM, first compound 0.0316 µM
[26] = second compound 0.00316 µM, first compound 0.1 µM
[27] = second compound 0.00316 µM, first compound 0.316 µM
[28] = second compound 0.00316 µM, first compound 1 µM
[29] = second compound 0.01 µM, first compound 0.0316 µM
[30] = second compound 0.01 µM, first compound 0.1 µM
[31] = second compound 0.01 µM, first compound 0.316 µM
[32] = second compound 0.01 µM, first compound 1 µM
[33] = second compound 0.0316 µM, first compound 0.316 µM
[34] = second compound 0.0316 µM, first compound 1 µM
[35] = second compound 0.1 µM, first compound 0.316 µM
[36] = second compound 0.1 µM, first compound 1 µM
[37] = second compound 0.316 µM, first compound 0.316 µM
[38] = second compound 0.316 µM, first compound 1 µM
[39] = second compound 1 µM, first compound 0.316 µM
[40] = second compound 1 µM, first compound 1 µM
[41] = second compound 0.00316 µM, first compound 0.00316 µM
[42] = second compound 0.00316 µM, first compound 0.01 µM
[43] = second compound 0.01 µM, first compound 0.00316 µM
[44] = second compound 0.01 µM, first compound 0.01 µM
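Note: compound exposure lasted seven days before viability was read.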
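Throughout, for viability, T/C: percent of vehicle DMSO treated spheroid viability so 100% = untreated.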

Cn1ncnc1[C@H]1c2n[nH]c(=O)c3cc(F)cc(c23)N[C@@H]1c1ccc(F)cc1 + Cc1nc(NC(=O)N2CCCC2C(N)=O)sc1-c1ccnc(C(C)(C)C(F)(F)F)c1
IC50 (second compound 0.0316 µM): > 100 nM
IC50 (second compound 0.1 µM): > 100 nM
IC50 (second compound 0.316 µM): > 100 nM
IC50 (second compound 1 µM): > 100 nM
IC50 (second compound 3.16 µM): 16.1 nM
IC50 (second compound 10 µM): < 0.316 nM
viability, T/C [1]: 83.6%
viability, T/C [2]: 95.8%
viability, T/C [3]: 112%
viability, T/C [4]: 87.8%
viability, T/C [5]: 72.1%
viability, T/C [6]: 99%
viability, T/C [7]: 81%
viability, T/C [8]: 98.7%
viability, T/C [9]: 99.9%
viability, T/C [10]: 67.5%
viability, T/C [11]: 84.2%
viability, T/C [12]: 83.5%
viability, T/C [13]: 89.1%
viability, T/C [14]: 67.3%
viability, T/C [15]: 78%
viability, T/C [16]: 61.4%
viability, T/C [17]: 69.7%
viability, T/C [18]: 78.7%
viability, T/C [19]: 62.2%
viability, T/C [20]: 70%
viability, T/C [21]: 67.2%
viability, T/C [22]: 57.6%
viability, T/C [23]: 60%
viability, T/C [24]: 55.4%
viability, T/C (second compound 3.16 µM, first compound 0.000316 µM): 63.1%
viability, T/C (second compound 3.16 µM, first compound 0.001 µM): 53.7%
viability, T/C (second compound 3.16 µM, first compound 0.00316 µM): 46.6%
viability, T/C (second compound 3.16 µM, first compound 0.01 µM): 58.2%
viability, T/C (second compound 3.16 µM, first compound 0.0316 µM): 51.7%
viability, T/C (second compound 3.16 µM, first compound 0.1 µM): 42%
viability, T/C (second compound 10 µM, first compound 0.000316 µM): 39%
viability, T/C (second compound 10 µM, first compound 0.001 µM): 38.7%
viability, T/C (second compound 10 µM, first compound 0.00316 µM): 43.8%
viability, T/C (second compound 10 µM, first compound 0.01 µM): 33%
viability, T/C (second compound 10 µM, first compound 0.0316 µM): 50.5%
viability, T/C (second compound 10 µM, first compound 0.1 µM): 38.5%

CC(Cn1ccc(-c2ccc(C#N)c(Cl)c2)n1)NC(=O)c1cc(C(C)O)[nH]n1 (stereo not drawn) + COc1c(OCCCN2CCOCC2)ccc2c3n(c(=NC(=O)c4cnc(N)nc4)nc12)CCN3
IC50 (second compound 0.00316 µM): > 10000 nM
IC50 (second compound 0.01 µM): > 10000 nM
IC50 (second compound 0.0316 µM): > 10000 nM
IC50 (second compound 0.1 µM): 1020 nM
IC50 (second compound 0.316 µM): < 31.6 nM
IC50 (second compound 1 µM): < 31.6 nM
viability, T/C [25]: 98%
viability, T/C [26]: 87.8%
viability, T/C [27]: 84.1%
viability, T/C [28]: 89.2%
viability, T/C (second compound 0.00316 µM, first compound 3.16 µM): 121%
viability, T/C (second compound 0.00316 µM, first compound 10 µM): 107%
viability, T/C [29]: 97.6%
viability, T/C [30]: 95.2%
viability, T/C [31]: 88.1%
viability, T/C [32]: 77.2%
viability, T/C (second compound 0.01 µM, first compound 3.16 µM): 99.4%
viability, T/C (second compound 0.01 µM, first compound 10 µM): 78.7%
viability, T/C [5]: 75.8%
viability, T/C [6]: 61.2%
viability, T/C [33]: 88.5%
viability, T/C [34]: 79%
viability, T/C (second compound 0.0316 µM, first compound 3.16 µM): 89.1%
viability, T/C (second compound 0.0316 µM, first compound 10 µM): 67.1%
viability, T/C [11]: 40.6%
viability, T/C [12]: 57.2%
viability, T/C [35]: 54.6%
viability, T/C [36]: 49.9%
viability, T/C (second compound 0.1 µM, first compound 3.16 µM): 41.2%
viability, T/C (second compound 0.1 µM, first compound 10 µM): 33%
viability, T/C [17]: 36.6%
viability, T/C [18]: 35.6%
viability, T/C [37]: 29.5%
viability, T/C [38]: 36%
viability, T/C (second compound 0.316 µM, first compound 3.16 µM): 33.9%
viability, T/C (second compound 0.316 µM, first compound 10 µM): 30.8%
viability, T/C [23]: 35.8%
viability, T/C [24]: 39%
viability, T/C [39]: 43.6%
viability, T/C [40]: 39.9%
viability, T/C (second compound 1 µM, first compound 3.16 µM): 31.4%
viability, T/C (second compound 1 µM, first compound 10 µM): 28.9%

CCN1CCN(Cc2ccc(Nc3ncc(F)c(-c4cc(F)c5nc(C)n(C(C)C)c5c4)n3)nc2)CC1 + COc1c(OCCCN2CCOCC2)ccc2c3n(c(=NC(=O)c4cnc(N)nc4)nc12)CCN3
IC50 (second compound 0.00316 µM): 296 nM
IC50 (second compound 0.01 µM): 582 nM
IC50 (second compound 0.0316 µM): 91.8 nM
IC50 (second compound 0.1 µM): < 3.16 nM
IC50 (second compound 0.316 µM): < 3.16 nM
IC50 (second compound 1 µM): < 3.16 nM
viability, T/C [41]: 80.1%
viability, T/C [42]: 93.5%
viability, T/C [25]: 89.8%
viability, T/C [26]: 72%
viability, T/C [27]: 49.9%
viability, T/C [28]: 43.5%
viability, T/C [43]: 97.4%
viability, T/C [44]: 74%
viability, T/C [29]: 68.6%
viability, T/C [30]: 60.4%
viability, T/C [31]: 51.8%
viability, T/C [32]: 47.1%
viability, T/C [3]: 66.5%
viability, T/C [4]: 66.1%
viability, T/C [5]: 60.8%
viability, T/C [6]: 47.8%
viability, T/C [33]: 38.8%
viability, T/C [34]: 30.3%
viability, T/C [9]: 45.9%
viability, T/C [10]: 40.7%
viability, T/C [11]: 37%
viability, T/C [12]: 37.7%
viability, T/C [35]: 29.6%
viability, T/C [36]: 28.4%
viability, T/C [15]: 36.2%
viability, T/C [16]: 33.8%
viability, T/C [17]: 27.1%
viability, T/C [18]: 29.6%
viability, T/C [37]: 33.1%
viability, T/C [38]: 30.8%
viability, T/C [21]: 32.6%
viability, T/C [22]: 35%
viability, T/C [23]: 35.6%
viability, T/C [24]: 28.5%
viability, T/C [39]: 32.7%
viability, T/C [40]: 28.6%

CC(C)n1nc(-c2ccc3oc(N)nc3c2)c2c(N)ncnc21 + CC(Nc1ccc2c(c1)OCCn1cc(N3C(=O)OCC3C(F)F)nc1-2)C(N)=O
IC50 (second compound 0.00316 µM): 82.2 nM
IC50 (second compound 0.01 µM): > 100 nM
IC50 (second compound 0.0316 µM): 64.6 nM
IC50 (second compound 0.1 µM): 44.1 nM
IC50 (second compound 0.316 µM): 37.4 nM
IC50 (second compound 1 µM): 8.33 nM
viability, T/C (second compound 0.00316 µM, first compound 0.000316 µM): 102%
viability, T/C (second compound 0.00316 µM, first compound 0.001 µM): 113%
viability, T/C [41]: 80.9%
viability, T/C [42]: 87.4%
viability, T/C [25]: 76.6%
viability, T/C [26]: 43.5%
viability, T/C (second compound 0.01 µM, first compound 0.000316 µM): 112%
viability, T/C (second compound 0.01 µM, first compound 0.001 µM): 107%
viability, T/C [43]: 109%
viability, T/C [44]: 62.2%
viability, T/C [29]: 76.9%
viability, T/C [30]: 51.9%
viability, T/C [1]: 100%
viability, T/C [2]: 99.1%
viability, T/C [3]: 94.6%
viability, T/C [4]: 84.4%
viability, T/C [5]: 83.8%
viability, T/C [6]: 31.6%
viability, T/C [7]: 102%
viability, T/C [8]: 96.3%
viability, T/C [9]: 101%
viability, T/C [10]: 86.6%
viability, T/C [11]: 57.3%
viability, T/C [12]: 32.6%
viability, T/C [13]: 78.2%
viability, T/C [14]: 91%
viability, T/C [15]: 61.5%
viability, T/C [16]: 61%
viability, T/C [17]: 61.1%
viability, T/C [18]: 32.3%
viability, T/C [19]: 50.6%
viability, T/C [20]: 63.5%
viability, T/C [21]: 52%
viability, T/C [22]: 49.7%
viability, T/C [23]: 35.2%
viability, T/C [24]: 31.3%
